From the Deep4Chem optical property database

Experiment: solvent given as SMILES

Work on `N#Cc1cc(C#Cc2c(F)c(F)nc(F)c2F)c(C#Cc2c(F)c(F)nc(F)c2F)cc1C#N` yielded an emission maximum (in CC#N) of 370 nm.

Work on `CSc1ccc2c(c1)N(CCCN(C)C)c1ccccc1S2` yielded an emission maximum (in CC#N) of 460 nm, an emission maximum (in CO) of 455 nm and an emission maximum (in O) of 475 nm.

With `C(#Cc1nc(C#Cc2cccs2)c(C#Cc2cccs2)c(C#Cc2cccs2)c1C#Cc1cccs1)c1cccs1` the emission maximum (in ClCCl) was 441 nm.

For `COc1ccc2c3c(c4ccc(OC)cc4c2c1)=[N+]1C(=C(c2c(C)cc(C)cc2C)c2cc4c5ccc(OC)cc5c5cc(OC)ccc5c4n2[B-]1(F)F)C=3`, the emission maximum (in C1CCCCC1) was 700 nm, the emission maximum (in C1CCOC1) was 712 nm and the emission maximum (in CC#N) was 712 nm. It also gave an emission maximum (in Cc1ccccc1) of 712 nm and an emission maximum (in ClCCl) of 711 nm.

Compound `C[n+]1ccn(CCCCc2ccc3c(c2)c2ccccc2n3-c2cc(C#N)c(C#N)cc2F)c1` has an emission maximum (in CC#N) of 558 nm.

For `COc1ccc(-c2ncc3ccccn23)cc1`, the emission maximum (in ClC(Cl)Cl) was 469 nm.

`CCN(CC)c1ccc2cc(-c3cn4cc(OC)ccc4n3)c(=O)oc2c1` showed an emission maximum (in ClC(Cl)Cl) of 478 nm.

`c1ccc(N(c2ccccc2)c2ccc(-c3ccc(-c4ccc(-c5ccc(-c6ccc(N(c7ccccc7)c7ccccc7)cc6)s5)c5nsnc45)s3)cc2)cc1` gave an emission maximum (in ClC(Cl)Cl) of 690 nm.

Work on `C/C=C/c1cc(OC)cc(OC)c1` yielded an emission maximum (in CC#N) of 343 nm and an emission maximum (in CCCCCC) of 338 nm.

With `CCCCCCCCn1c(=O)c2cc3c(C#Cc4ccc(N(c5ccccc5)c5ccccc5)cc4)c4cc5c(=O)n(CCCCCCCC)c(=O)c5cc4c(C#Cc4ccc(N(c5ccccc5)c5ccccc5)cc4)c3cc2c1=O` the emission maximum (in ClC(Cl)Cl) was 641 nm.

`c1ccc(N(c2ccccc2)c2ccc(-c3ccc4c(c3)C3(c5ccccc5Oc5ccccc53)c3cc(-c5ccc(N(c6ccccc6)c6ccccc6)cc5)ccc3-4)cc2)cc1` gave an emission maximum (in ClCCl) of 457 nm and an emission maximum (in c1cc(-n2c3ccccc3c3ccccc32)cc(-n2c3ccccc3c3ccccc32)c1) of 441 nm.

`C[n+]1ccnc(/C=C/c2ccc(N(c3ccccc3)c3ccc(/C=C/c4c[n+](C)ccn4)cc3)cc2)c1` showed an emission maximum (in CS(C)=O) of 530 nm and an emission maximum (in OCC(O)CO) of 690 nm.

For `c1cc2c3c(c1)OCCCCCCCOc1cccc(c1-c1c4ccccc4c-3c3ccccc13)OCCCCCCCO2`, the emission maximum (in C1CCCCC1) was 427 nm.

In the case of `F[B-]1(F)n2c(cc3oc(-c4ccccc4)cc32)C=C2C=c3oc(-c4ccccc4)cc3=[N+]21`, the emission maximum (in ClC(Cl)Cl) is reported as 661 nm.

In the case of `CCNc1cc2oc(=O)c3c(=O)oc4ccccc4c3c2cc1C`, the emission maximum (in CS(C)=O) is reported as 552 nm and the emission maximum (in ClCCl) is reported as 509 nm.

`CCCCCCCCCCCCOc1cc2c3c(ccc4c5c(NC6CCCCC6)cc6c7c(ccc(c1c34)c75)C(=O)N(C1CCCCC1)C6=O)C(=O)N(C1CCCCC1)C2=O` gave an emission maximum (in ClC(Cl)Cl) of 722 nm.

`CC[N+]1(CC)CN2C(=N1)C(C(=O)O)=Cc1ccccc12` showed an emission maximum (in CN(C)C=O) of 463 nm and an emission maximum (in O) of 462 nm.

In the case of `CCOC(=O)c1c(-c2c(Cl)c3cc(C)ccc3oc2=O)nn(-c2ccccc2)c1C(=O)OCC`, the emission maximum (in ClCCl) is reported as 417 nm.

With `Cn1c(=O)nc2n(C)c3ccccc3nc-2c1=O` the emission maximum (in CC1CCCO1) was 490 nm and the emission maximum (in CC#N) was 529 nm.

With `CC1=[N+]2C(=C(c3ccccc3)c3c4c(c(C)n3[B-]2(F)F)CCc2ccccc2-4)C2=C1CCc1ccccc12` the emission maximum (in CC#N) was 612 nm.

Work on `CCN(CC)c1ccc2cc(-c3cn4cc5ccccc5cc4n3)c(=O)oc2c1` yielded an emission maximum (in ClC(Cl)Cl) of 460 nm.

`COc1cnc(-c2cc[n+](C3=C(F)C(F)(F)C(F)(F)[C-]3F)cc2)s1` showed an emission maximum (in CC#N) of 474 nm, an emission maximum (in CC(C)=O) of 474 nm and an emission maximum (in CCO) of 474 nm. The emission maximum (in CN(C)C=O) was 485 nm, the emission maximum (in CO) was 472 nm and the emission maximum (in CS(C)=O) was 490 nm. The emission maximum (in ClC(Cl)Cl) was 462 nm and the emission maximum (in ClCCl) was 466 nm.

`Cc1ccc(C2=[N+]3C(=Nc4c5ccccc5c(-c5ccc(C)s5)n4[B-]3(F)F)c3ccccc32)s1` gave an emission maximum (in ClCCl) of 841 nm.

`CC1(C)CC(/C=C/c2ccc(-n3c4ccccc4c4ccccc43)cc2)=CC(=C(C#N)C#N)C1` gave an emission maximum (in C1CCOC1) of 571 nm, an emission maximum (in CC#N) of 600 nm and an emission maximum (in CCO) of 583 nm. It also gave an emission maximum (in CCOC(C)=O) of 565 nm, an emission maximum (in ClCCl) of 582 nm and an emission maximum (in c1ccccc1) of 534 nm.

`Cc1cccc(C)c1-c1cc2c(C)c3c4cc5nc6ccc7c8c(C)c9cc(-c%10c(C)cccc%10C)c(-c%10c(C)cccc%10C)cc9c(C)c8c7c6nc5cc4c3c(C)c2cc1-c1c(C)cccc1C` showed an emission maximum (in ClC(Cl)Cl) of 576 nm.

Compound `COC(=O)/C(C#N)=c1/cc/c(=c2/cc/c(=C(\C#N)C(=O)OC)s2)s1` has an emission maximum (in Cc1ccccc1) of 601 nm.

Work on `CC1=C2C3=C(CCc4ccccc43)C(C)=[N+]2[B-](F)(F)n2c(C)c3c(c21)-c1ccccc1CC3` yielded an emission maximum (in CC#N) of 599 nm.

`CN1/C(=C/C=C(/C=C/c2sc3ccccc3[n+]2C)c2cccc(C(F)(F)F)c2)Sc2ccccc21` showed an emission maximum (in CCO) of 665 nm, an emission maximum (in CO) of 661 nm and an emission maximum (in CS(C)=O) of 665 nm. It also gave an emission maximum (in O) of 659 nm.

`c1ccc(-c2nc(-c3ccccc3)nc(-c3ccc(-n4c5ccccc5c5c4c4ccccc4n5-c4ccccc4)cc3)n2)cc1` gave an emission maximum (in Cc1ccccc1) of 526 nm.

`CCOC(=O)/C(C#N)=C\c1cn(-c2ccccc2)nc1-c1ccccc1` gave an emission maximum (in C1CCOC1) of 429 nm, an emission maximum (in C1COCCO1) of 408 nm and an emission maximum (in CCO) of 423 nm. It also gave an emission maximum (in CCOC(C)=O) of 427 nm, an emission maximum (in CN(C)C=O) of 434 nm and an emission maximum (in CO) of 434 nm. The emission maximum (in CS(C)=O) was 440 nm, the emission maximum (in Cc1ccccc1) was 407 nm and the emission maximum (in ClC(Cl)Cl) was 431 nm. The emission maximum (in ClCCl) was 428 nm.

Compound `CC(=O)c1ccc(-c2cnc3nn4ccccc4c3n2)cc1` has an emission maximum (in C1CCOC1) of 455 nm.

Compound `C#CCNC1=C2C=C(c3cc4n(c3)[B-](F)(F)[N+]3=CC=CC3=C4c3c(C)cc(C)cc3C)C(C)=[N+]2[B-](F)(F)n2c(C)ccc21` has an emission maximum (in C1CCCCC1) of 633 nm and an emission maximum (in CCOC(C)=O) of 690 nm.

`CCCCN1C(=O)c2cccc3cccc(c23)C1=O` gave an emission maximum (in Cc1ccccc1) of 392 nm.

With `COc1cc(-c2ncc(-c3ccncc3)o2)cc(OC)c1OC` the emission maximum (in ClCCl) was 417 nm.

`COc1ccc(-c2c3cc4ccccc4cc3c(C#Cc3ccccc3)c3cc4cc(C)sc4cc23)cc1` showed an emission maximum (in ClCCl) of 620 nm.

In the case of `[NH3+]c1ccc2ccc([O-])cc2c1`, the emission maximum (in O) is reported as 425 nm.

`O=C1CC(=O)Nc2ccccc2N1` showed an emission maximum (in CS(C)=O) of 337 nm.

Work on `COc1ccc(C2=[N+]3C(=Nc4c(-c5cc(OC)c(OC)c(OC)c5)c(-c5ccc(C(C)(C)C)cc5)c(-c5ccc(OC)cc5)n4[B-]3(F)F)C(c3cc(OC)c(OC)c(OC)c3)=C2c2ccc(C(C)(C)C)cc2)cc1` yielded an emission maximum (in Cc1ccccc1) of 726 nm.

`CCOC(=O)c1c(-c2cc3ccccc3oc2=O)nn(-c2ccc(Br)cc2)c1C(=O)OCC` gave an emission maximum (in ClCCl) of 400 nm.

`CC(C)[Si](C#Cc1ccc2c(C#C[Si](C(C)C)(C(C)C)C(C)C)cc3c4cc(C#C[Si](C(C)C)(C(C)C)C(C)C)ccc4c(C#C[Si](C(C)C)(C(C)C)C(C)C)cc3c2c1)(C(C)C)C(C)C` gave an emission maximum (in ClCCl) of 408 nm.

`CC1(C)C(=O)C=Cc2ccc(N)cc21` showed an emission maximum (in O) of 526 nm.

Work on `CCOc1ccc2c(-c3nc(-c4cccc(C)c4)no3)cc(=O)oc2c1` yielded an emission maximum (in CCO) of 465 nm and an emission maximum (in ClC(Cl)Cl) of 456 nm.

In the case of `N#Cc1c(/C=C/c2ccc(N(c3ccccc3)c3ccccc3)cc2)cc(-c2ccccc2)cc1N1CCCCC1`, the emission maximum (in CS(C)=O) is reported as 520 nm.

For `Cc1ccc2nc3c4c(c5ccccc5c3nc2c1)OC(=O)CC4c1ccc(C(F)(F)F)cc1` (configuration not stated), the emission maximum (in ClC(Cl)Cl) was 430 nm.

For `C(C1=[NH+]c2cccc3cccc1c23)=c1[nH]c2cccc3cccc1c32`, the emission maximum (in CO) was 617 nm.

For `Cc1ccccc1C1=C2C=c3c(oc4ccc(C(C)(C)C)cc34)=[N+]2[B-](F)(F)n2c1cc1c3cc(C(C)(C)C)ccc3oc12`, the emission maximum (in C1CCCCC1) was 602 nm, the emission maximum (in CCOC(C)=O) was 602 nm and the emission maximum (in CO) was 600.5 nm.

`Cn1nc(-c2ccccc2)c2nc3cc(F)ccc3nc21` showed an emission maximum (in C1CCCCC1) of 486 nm, an emission maximum (in C1CCOC1) of 520 nm and an emission maximum (in CC#N) of 535 nm.

With `COc1cc(OC)cc(C(=O)OCc2c(C)c(=O)n3c(=O)c(C)c(C)n23)c1` the emission maximum (in CCO) was 462 nm.

With `COc1cc2c(cc1-c1ccc(F)cc1)Cc1c3c(c4c(c1-2)-c1cc(OC)c(-c2ccc(F)cc2)cc1C4)C(=O)N(CCC(C)C)C3=O` the emission maximum (in C1CCOC1) was 468 nm.

`CC1(C)C(/C=C/C2=C(Oc3ccc(CCN=C=S)cc3Cl)C(=C/C=C3/N(CCCS(=O)(=O)[O-])c4ccccc4C3(C)C)/CCC2)=[N+](CCCS(=O)(=O)[O-])c2ccccc21` gave an emission maximum (in CO) of 797 nm.

With `Cc1cc(C)c(C2=C(c3c(C)sc(-c4ccc(-c5nc(-c6ccccc6)c(-c6ccccc6)[nH]5)cc4)c3C)C(F)(F)C(F)(F)C2(F)F)s1` the emission maximum (in C1CCOC1) was 393 nm.

For `N#Cc1ccc(C=C2Oc3cccc(O)c3C2=O)cc1`, the emission maximum (in CC#N) was 510 nm.

Compound `CC[NH+](CC)c1ccc(-c2nc3c(nc2-c2ccc(B(c4c(C)cc(C)cc4C)c4c(C)cc(C)cc4C)cc2)c2ccccc2n3C)cc1` has an emission maximum (in C1CCOC1) of 428.33 nm.

In the case of `COc1ccc(-c2c3cc4ccccc4cc3c(-c3ccc(OC)cc3)c3cc4ccccc4cc23)cc1`, the emission maximum (in ClCCl) is reported as 620 nm.

Work on `CC(C)[Si](C#Cc1c2cc3ccccc3cc2c(C#C[Si](C(C)C)(C(C)C)C(C)C)c2nc3cc4c(cc3nc12)C1c2ccccc2C4c2ccccc21)(C(C)C)C(C)C` yielded an emission maximum (in CCCCCC) of 682 nm and an emission maximum (in ClCCl) of 718 nm.

Compound `CCCCCCn1c2cc(C=C(C#N)C#N)sc2c2sc3c(sc4c5sc(C=C(C#N)C#N)cc5n(CCCCCC)c43)c21` has an emission maximum (in ClCCl) of 620 nm.

For `CC(C)[Si](C#CC1=CC2=c3cc(C#C[Si](C(C)C)(C(C)C)C(C)C)c4nc(C(F)(F)C(F)(F)C(F)(F)F)nc5c(C#C[Si](C(C)C)(C(C)C)C(C)C)cc(c3c54)C3=CC(C#C[Si](C(C)C)(C(C)C)C(C)C)=C4N=C(C(F)(F)C(F)(F)C(F)(F)F)N=C1C4C32)(C(C)C)C(C)C` (configuration not stated), the emission maximum (in C1CCOC1) was 525 nm.

`Cc1ccc2nc(-c3cccc4nc(C)[nH]c(=O)c34)oc2c1` showed an emission maximum (in CN(C)C=O) of 410 nm.

With `O=c1[nH]c(=O)c2scc([C@H]3C[C@H](O)[C@@H](CO)O3)c2[nH]1` the emission maximum (in CC#N) was 345 nm, the emission maximum (in CCOC(C)=O) was 343 nm and the emission maximum (in CO) was 351 nm. It also gave an emission maximum (in O) of 351 nm.

Compound `CCN(CC)c1ccc2cc(-c3nc4cc(C(=O)Nc5ccc(C)cc5[N+](=O)[O-])ccc4o3)c(=O)oc2c1` has an emission maximum (in ClCCl) of 496 nm.

With `CSc1ccc2cc(C#N)c3ccc4ccccc4c3c2c1` the emission maximum (in ClC(Cl)Cl) was 403 nm.
